Data published in article PMC6726392 (ACS chemical neuroscience, 2019).

Columns and labels:
[1] = target: delta opioid receptor (DOR); rat DOR (Rattus norvegicus, UniProt P33533); experiment: [3H]diprenorphine competitive displacement, membranes; type: binding
[2] = target: T1, kappa opioid receptor (KOR); human KOR (Homo sapiens, UniProt P41145); experiment: as above; type: binding
[3] = target: mu opioid receptor (MOR); rat MOR (Rattus norvegicus, UniProt P33535); experiment: as above; type: binding
[4] = target: T1, kappa opioid receptor (KOR); human KOR; experiment: […]GTPγS binding stimulation, membranes; type: biochemical

SMILES | Ki [1] [nM] | Ki [2] [nM] | Ki [3] [nM] | EC50 [4] [nM]
Cc1cc(O)cc(C)c1C[C@H](N)C(=O)N1CCc2cccc(Cc3ccccc3)c2C1 [4d, 8-Bn Dmt-Tiq analogue 4d] | 185 | 26 | 4.1 | 319
Cc1cc(O)cc(C)c1C[C@H](N)C(=O)N1CCc2cc(Cc3ccccc3)ccc2C1 [4b, 6-Bn Dmt-Tiq analogue 4b] | 4.3 | 38 | 9.9 | –
Cc1cc(O)cc(C)c1C[C@H](N)C(=O)N1CCc2c(Cc3ccccc3)cccc2C1 [4a, 5-Bn Dmt-Tiq analogue 4a] | 3.3 | 112 | 17 | –
Cc1cc(O)cc(C)c1C[C@H](N)C(=O)N1CCc2ccc(Cc3ccccc3)cc2C1 [4c, 7-Bn Dmt-Tiq analogue 4c] | 6.1 | 3.9 | 2.7 | 33
